This note sets out measurements from ChEMBL document CHEMBL1153577, “2D- and 3D-QSAR studies on 54 anti-tumor Rubiaceae-type cyclopeptides” (Eur J Med Chem, 2009).

Usually IC50 stands for the concentration that inhibits the measured activity by half. A low value points to greater potency.

For this assay, the system named is P388. Nature of the assay: Cytotoxicity against mouse P388 cell. The conditions noted are these: Mus musculus, P388. It is filed as functional, cell-based.

`COc1ccc(C[C@H]2C(=O)N[C@@H](C)C(=O)N(C)[C@H]3Cc4ccc(cc4)Oc4cc(ccc4OC)C[C@@H](C(=O)N[C@H](C)C(=O)N[C@@H](CS)C(=O)N2C)N(C)C3=O)cc1` had an IC50 of 363 nM.

In turn, `COc1ccc(C[C@H]2C(=O)N[C@@H](C)C(=O)N(C)[C@H]3Cc4ccc(cc4)Oc4cc(ccc4OC)C[C@@H](C(=O)N[C@H](C)C(=O)N[C@@H](CO)C(=O)N2C)N(C)C3=O)cc1` showed an IC50 of 14.1 nM.

`COc1ccc(C[C@H]2C(=O)N[C@@H](C)C(=O)N(C)[C@H]3Cc4ccc(cc4)Oc4cc(ccc4OC)C[C@@H](C(=O)N[C@H](C)C(=O)N[C@@H](CCCO)C(=O)N2C)N(C)C3=O)cc1` showed an IC50 of 174 nM.

As for `COc1ccc(C[C@H]2C(=O)N[C@@H](C)C(=O)N(C)[C@H]3Cc4ccc(cc4)Oc4cc(ccc4OC)C[C@@H](C(=O)N[C@H](C)C(=O)NC4(SCCS4)C(=O)N2C)N(C)C3=O)cc1`, the midpoint of inhibition, the IC50, lay at 631 nM.

The molecule `C=C[C@@H]1NC(=O)[C@@H](C)NC(=O)[C@@H]2Cc3ccc(OC)c(c3)Oc3ccc(cc3)C[C@@H](C(=O)N2C)N(C)C(=O)[C@H](C)NC(=O)[C@H](Cc2ccc(OC)cc2)N(C)C1=O` showed an IC50 of 25.7 nM.

`COc1ccc(C[C@H]2C(=O)N[C@@H](C)C(=O)N(C)[C@H]3Cc4ccc(cc4)Oc4cc(ccc4OC)C[C@@H](C(=O)N[C@H](C)C(=O)N[C@@H](CC(=O)O)C(=O)N2C)N(C)C3=O)cc1` showed an IC50 of 1200 nM.

With `C=CC[C@@H]1NC(=O)[C@@H](C)NC(=O)[C@@H]2Cc3ccc(OC)c(c3)Oc3ccc(cc3)C[C@@H](C(=O)N2C)N(C)C(=O)[C@H](C)NC(=O)[C@H](Cc2ccc(OC)cc2)N(C)C1=O`, the IC50 was 38.9 nM.

On to `COc1ccc(C[C@H]2C(=O)N[C@@H](C)C(=O)N(C)[C@H]3Cc4ccc(cc4)Oc4cc(ccc4OC)C[C@@H](C(=O)N[C@H](C)C(=O)N[C@@H](CSC(C)=O)C(=O)N2C)N(C)C3=O)cc1`, for which the half-maximal inhibitory concentration (IC50) is 9.77 nM.

For `COc1ccc(C[C@H]2C(=O)N[C@@H](C)C(=O)N(C)[C@H]3Cc4ccc(cc4)Oc4cc(ccc4OC)C[C@@H](C(=O)N[C@H](C)C(=O)N[C@@H](CCCCO)C(=O)N2C)N(C)C3=O)cc1`, the IC50 is 219 nM.

The molecule `COc1ccc(C[C@H]2C(=O)N[C@@H](C)C(=O)N(C)[C@H]3Cc4ccc(cc4)Oc4cc(ccc4OC)C[C@@H](C(=O)N[C@H](C)C(=O)N[C@@H](CCCN=[N+]=[N-])C(=O)N2C)N(C)C3=O)cc1` gave an IC50 of 35.5 nM.

Take `COc1ccc(C[C@H]2C(=O)N[C@@H](C)C(=O)N(C)[C@H]3Cc4ccc(cc4)Oc4cc(ccc4OC)C[C@@H](C(=O)N[C@H](C)C(=O)N[C@@H](CCC(=O)O)C(=O)N2C)N(C)C3=O)cc1`: the midpoint of inhibition, the IC50, lay at 219 nM.

With `CCC[C@@H]1NC(=O)[C@@H](C)NC(=O)[C@@H]2Cc3ccc(OC)c(c3)Oc3ccc(cc3)C[C@@H](C(=O)N2C)N(C)C(=O)[C@H](C)NC(=O)[C@H](Cc2ccc(OC)cc2)N(C)C1=O`, the IC50 was 13.8 nM.

`COc1ccc(C[C@H]2C(=O)N[C@@H](C)C(=O)N(C)[C@H]3Cc4ccc(cc4)Oc4cc(ccc4OC)C[C@@H](C(=O)N[C@H](C)C(=O)N[C@@H](CCO)C(=O)N2C)N(C)C3=O)cc1`: it took 60.3 nM to reach half-maximal inhibition (IC50).

Take `COC(=O)C[C@@H]1NC(=O)[C@@H](C)NC(=O)[C@@H]2Cc3ccc(OC)c(c3)Oc3ccc(cc3)C[C@@H](C(=O)N2C)N(C)C(=O)[C@H](C)NC(=O)[C@H](Cc2ccc(OC)cc2)N(C)C1=O`: 41.7 nM corresponded to half-maximal inhibition (IC50).

With `COC(=O)CC[C@@H]1NC(=O)[C@@H](C)NC(=O)[C@@H]2Cc3ccc(OC)c(c3)Oc3ccc(cc3)C[C@@H](C(=O)N2C)N(C)C(=O)[C@H](C)NC(=O)[C@H](Cc2ccc(OC)cc2)N(C)C1=O`, half-maximal inhibition (IC50) required 58.9 nM.

Molecule `COc1ccc(C[C@H]2C(=O)N[C@@H](C)C(=O)N(C)[C@H]3Cc4ccc(cc4)Oc4cc(ccc4OC)C[C@@H](C(=O)N[C@H](C)C(=O)N[C@@H](CC=O)C(=O)N2C)N(C)C3=O)cc1` gave an IC50 of 33.9 nM.
